Data published in PubChem BioAssay (NCI).
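In this assay, cells in 96-well plates receive the compound at five concentrations for 48 hours. Endpoints are linearly interpolated between the surrounding concentrations. At the TGI there is no net growth.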

What was measured:
Experiment in all cases: NCI-60 cell line screen, 48 h
COLO 205 colon = test system: COLO 205 colon
OVCAR-5 ovarian = test system: OVCAR-5 ovarian
TK-10 renal = test system: TK-10 renal
A498 renal = test system: A498 renal
MDA-MB-231 breast = test system: MDA-MB-231 breast
NCI/ADR-RES ovarian = test system: NCI/ADR-RES ovarian
UACC-62 melanoma = test system: UACC-62 melanoma
SF-295 CNS = test system: SF-295 CNS
UO-31 renal = test system: UO-31 renal
SN12C renal = test system: SN12C renal
IGROV1 ovarian = test system: IGROV1 ovarian
HL-60(TB) leukemia = test system: HL-60(TB) leukemia
HCC-2998 colon = test system: HCC-2998 colon
SF-539 CNS = test system: SF-539 CNS
UACC-257 melanoma = test system: UACC-257 melanoma
T-47D breast = test system: T-47D breast

Row | SMILES | TGI (COLO 205 colon) [µM] | TGI (OVCAR-5 ovarian) [µM] | TGI (TK-10 renal) [µM] | TGI (A498 renal) [µM] | TGI (MDA-MB-231 breast) [µM] | TGI (NCI/ADR-RES ovarian) [µM] | TGI (UACC-62 melanoma) [µM] | TGI (SF-295 CNS) [µM] | TGI (UO-31 renal) [µM] | TGI (SN12C renal) [µM] | TGI (IGROV1 ovarian) [µM] | TGI (HL-60(TB) leukemia) [µM] | TGI (HCC-2998 colon) [µM] | TGI (SF-539 CNS) [µM] | TGI (UACC-257 melanoma) [µM] | TGI (T-47D breast) [µM]
1 | COc1cccc2c1OC(c1ccc(C#N)cc1)C([N+](=O)[O-])=C2 (stereo not drawn) | 3.15 | 3.72 | 7.77 | 4.03 | 2.92 | > 100 | 3.33 | 18.5 | 3.01 | 4.37 | 3.76 | 5.62 | 3.15 | 4.23 | 2.68 | –
2 | Oc1ccc(N=C2CCC(=C(c3ccccc3)c3ccc(Nc4ccc(O)cc4)cc3)CC2)cc1 | > 100 | > 100 | > 100 | > 100 | > 100 | > 100 | > 100 | > 100 | > 100 | > 100 | – | – | > 100 | > 100 | > 100 | –
3 | CC1(C)C(O)C[C@@H](O)[C@@]2(C)C1CC[C@]1(C)C2C[C@@H](O)[C@@H]2C([C@@]3(C)CC[C@@H](C(C)(C)O)O3)CCC21C (stereo partly drawn) | 30 | 30.7 | > 62.1 | 34.9 | – | – | 22.6 | 30.2 | 32.8 | 26.9 | 28.1 | > 55 | 31.4 | 27.5 | > 54.1 | –
4 | CC(NC(=O)C(N)CC(=O)O)NC(=O)C1CCC1 (stereo not drawn) | > 100 | > 100 | > 100 | > 100 | > 100 | > 100 | > 100 | – | > 100 | > 100 | – | – | – | > 100 | > 100 | > 100
5 | C=C(C)[C@@]1(OC(=O)c2cc([N+](=O)[O-])cc([N+](=O)[O-])c2)C[C@@H]2CCCC[C@@H]21 | > 100 | > 100 | > 100 | – | > 100 | > 100 | > 100 | > 100 | > 100 | > 100 | > 100 | > 100 | > 100 | > 100 | > 100 | > 100
6 | CC(=O)OC1CCCn2c1nc1c2C(=O)C(C)=C(N2CC2)C1=O (stereo not drawn) | 1.2 | 1.32 | 7.28 | 0.36 | – | – | 0.77 | 0.665 | 5.07 | 1.5 | 3.35 | 14.6 | 0.722 | 1.43 | 0.587 | –
7 | c1ccc(-n2nc3ccc4nonc4c3n2)cc1 | > 100 | > 100 | > 100 | – | > 100 | > 100 | > 100 | > 100 | – | > 100 | > 100 | > 100 | > 100 | > 100 | > 100 | > 100
8 | O=C(O)c1ccc(NC(NC(=O)C(C(F)(F)F)C(F)(F)F)(C(F)(F)F)C(F)(F)F)cc1 | > 100 | > 100 | > 100 | > 100 | – | > 100 | – | – | > 100 | > 100 | > 100 | > 100 | > 100 | > 100 | > 100 | > 100
